Drawing on ChEMBL document CHEMBL4477252, “Optimization of microtubule affinity regulating kinase (MARK) inhibitors with improved physical properties” (Bioorg Med Chem Lett, 2016), this text covers IC50 and clearance for two molecules.

Mitogen-activated protein kinase 8, sequence (P45983 whole entry): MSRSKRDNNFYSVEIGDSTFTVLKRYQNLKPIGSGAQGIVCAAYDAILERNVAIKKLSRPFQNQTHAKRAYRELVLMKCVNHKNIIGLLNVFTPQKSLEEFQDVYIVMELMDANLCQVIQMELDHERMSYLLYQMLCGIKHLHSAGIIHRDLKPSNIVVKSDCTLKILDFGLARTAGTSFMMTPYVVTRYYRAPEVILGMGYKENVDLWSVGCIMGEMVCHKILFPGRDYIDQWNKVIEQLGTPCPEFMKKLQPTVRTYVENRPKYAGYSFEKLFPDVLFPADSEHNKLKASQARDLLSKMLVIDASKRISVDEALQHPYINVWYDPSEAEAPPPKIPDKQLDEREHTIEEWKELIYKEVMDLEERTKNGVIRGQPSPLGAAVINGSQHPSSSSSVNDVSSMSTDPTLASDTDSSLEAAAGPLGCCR
Serine/threonine-protein kinase MRCK alpha, sequence (Q5VT25 whole entry, the tested form may be a part): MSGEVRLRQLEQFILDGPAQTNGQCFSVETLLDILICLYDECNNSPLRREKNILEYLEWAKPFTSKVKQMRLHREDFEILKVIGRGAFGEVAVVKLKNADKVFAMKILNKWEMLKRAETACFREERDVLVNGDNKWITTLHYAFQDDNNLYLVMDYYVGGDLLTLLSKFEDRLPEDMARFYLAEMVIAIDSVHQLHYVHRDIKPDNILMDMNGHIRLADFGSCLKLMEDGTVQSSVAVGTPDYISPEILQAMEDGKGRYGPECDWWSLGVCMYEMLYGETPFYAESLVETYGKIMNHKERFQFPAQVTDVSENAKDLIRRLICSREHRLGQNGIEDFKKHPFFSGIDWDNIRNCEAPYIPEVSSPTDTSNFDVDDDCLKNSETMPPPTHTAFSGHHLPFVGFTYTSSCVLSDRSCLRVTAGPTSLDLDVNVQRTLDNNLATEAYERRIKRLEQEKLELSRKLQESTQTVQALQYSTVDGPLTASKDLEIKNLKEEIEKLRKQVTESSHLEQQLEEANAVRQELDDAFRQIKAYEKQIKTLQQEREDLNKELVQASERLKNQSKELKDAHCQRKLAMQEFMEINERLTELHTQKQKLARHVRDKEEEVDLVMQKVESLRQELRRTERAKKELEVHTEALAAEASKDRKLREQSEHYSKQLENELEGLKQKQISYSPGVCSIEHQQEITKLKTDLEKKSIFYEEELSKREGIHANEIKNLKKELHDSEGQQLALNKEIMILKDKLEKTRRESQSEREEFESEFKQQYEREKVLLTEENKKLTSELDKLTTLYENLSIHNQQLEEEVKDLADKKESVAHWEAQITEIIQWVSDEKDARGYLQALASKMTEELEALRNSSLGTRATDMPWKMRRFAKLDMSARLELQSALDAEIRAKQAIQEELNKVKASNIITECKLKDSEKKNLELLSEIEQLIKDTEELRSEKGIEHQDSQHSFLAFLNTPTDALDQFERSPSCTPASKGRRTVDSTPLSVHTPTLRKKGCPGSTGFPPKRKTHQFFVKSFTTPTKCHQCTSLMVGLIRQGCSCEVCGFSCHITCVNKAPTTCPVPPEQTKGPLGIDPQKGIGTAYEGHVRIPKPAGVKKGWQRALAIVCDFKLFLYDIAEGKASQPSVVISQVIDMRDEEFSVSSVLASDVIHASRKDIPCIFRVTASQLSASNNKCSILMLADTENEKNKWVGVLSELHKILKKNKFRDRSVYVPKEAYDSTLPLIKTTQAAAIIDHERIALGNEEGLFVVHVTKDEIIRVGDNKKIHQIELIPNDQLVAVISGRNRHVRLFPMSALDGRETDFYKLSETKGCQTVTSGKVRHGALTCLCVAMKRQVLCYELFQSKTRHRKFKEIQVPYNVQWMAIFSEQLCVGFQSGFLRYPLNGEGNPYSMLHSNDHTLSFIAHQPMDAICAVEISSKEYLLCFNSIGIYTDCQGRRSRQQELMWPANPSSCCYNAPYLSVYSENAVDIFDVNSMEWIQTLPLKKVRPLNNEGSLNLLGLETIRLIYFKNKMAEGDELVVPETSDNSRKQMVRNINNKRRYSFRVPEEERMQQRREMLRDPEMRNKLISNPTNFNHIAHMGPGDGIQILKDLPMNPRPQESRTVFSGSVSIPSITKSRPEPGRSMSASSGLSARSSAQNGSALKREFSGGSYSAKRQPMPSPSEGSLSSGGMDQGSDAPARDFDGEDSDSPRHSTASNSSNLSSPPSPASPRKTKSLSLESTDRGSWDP
Angiopoietin-1 receptor, sequence (Q02763 whole entry): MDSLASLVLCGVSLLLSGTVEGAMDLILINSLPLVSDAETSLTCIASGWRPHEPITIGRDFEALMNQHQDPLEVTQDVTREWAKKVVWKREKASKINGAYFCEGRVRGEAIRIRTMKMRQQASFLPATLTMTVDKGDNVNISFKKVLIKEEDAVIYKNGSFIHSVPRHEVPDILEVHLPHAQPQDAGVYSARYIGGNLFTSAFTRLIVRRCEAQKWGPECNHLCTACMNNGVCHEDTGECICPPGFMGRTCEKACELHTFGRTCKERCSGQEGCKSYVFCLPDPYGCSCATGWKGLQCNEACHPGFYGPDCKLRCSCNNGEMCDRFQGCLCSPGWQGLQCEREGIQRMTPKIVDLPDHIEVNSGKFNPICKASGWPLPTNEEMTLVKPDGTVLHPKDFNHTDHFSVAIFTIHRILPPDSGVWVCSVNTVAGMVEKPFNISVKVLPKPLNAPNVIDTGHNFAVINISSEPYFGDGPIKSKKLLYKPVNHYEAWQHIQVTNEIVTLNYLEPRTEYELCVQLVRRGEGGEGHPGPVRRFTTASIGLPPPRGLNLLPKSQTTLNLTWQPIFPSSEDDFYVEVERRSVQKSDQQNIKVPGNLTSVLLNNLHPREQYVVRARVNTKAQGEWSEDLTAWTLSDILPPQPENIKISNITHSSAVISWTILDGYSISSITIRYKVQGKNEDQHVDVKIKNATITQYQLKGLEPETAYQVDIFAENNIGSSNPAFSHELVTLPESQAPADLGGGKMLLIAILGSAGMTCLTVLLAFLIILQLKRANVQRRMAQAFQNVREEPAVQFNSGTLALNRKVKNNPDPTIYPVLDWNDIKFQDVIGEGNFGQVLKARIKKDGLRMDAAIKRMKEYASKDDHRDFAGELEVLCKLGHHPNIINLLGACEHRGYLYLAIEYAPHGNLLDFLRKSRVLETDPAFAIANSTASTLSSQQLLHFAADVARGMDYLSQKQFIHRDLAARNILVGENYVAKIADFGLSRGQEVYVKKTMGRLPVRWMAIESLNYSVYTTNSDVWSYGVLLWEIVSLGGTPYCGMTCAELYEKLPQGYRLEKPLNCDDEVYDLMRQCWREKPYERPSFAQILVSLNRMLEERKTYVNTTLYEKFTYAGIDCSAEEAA
Tyrosine-protein kinase Lck, sequence (P06239 whole entry): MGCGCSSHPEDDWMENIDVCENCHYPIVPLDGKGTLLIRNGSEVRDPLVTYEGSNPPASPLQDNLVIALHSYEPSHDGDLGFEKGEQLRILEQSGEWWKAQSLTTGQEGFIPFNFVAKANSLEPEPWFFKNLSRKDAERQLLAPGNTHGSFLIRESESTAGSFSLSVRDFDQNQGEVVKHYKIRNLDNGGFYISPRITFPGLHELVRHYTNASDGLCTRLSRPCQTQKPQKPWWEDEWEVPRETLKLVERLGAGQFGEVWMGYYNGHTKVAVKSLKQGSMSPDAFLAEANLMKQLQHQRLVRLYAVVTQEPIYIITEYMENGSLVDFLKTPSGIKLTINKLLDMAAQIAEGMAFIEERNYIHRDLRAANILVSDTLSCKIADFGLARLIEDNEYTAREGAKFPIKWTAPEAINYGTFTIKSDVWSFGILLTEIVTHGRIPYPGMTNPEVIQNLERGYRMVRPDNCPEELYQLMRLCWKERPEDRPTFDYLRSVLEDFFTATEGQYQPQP

The first series has as its target Mitogen-activated protein kinase 8 (Homo sapiens, UniProt P45983). The series can be described thus: Inhibition of full-length recombinant human His-tagged MAPK8 expressed in baculovirus expression system by Z'-LYTE assay.
Settings: not given
Take `O=C(NCC(F)(F)F)c1cc(-c2cnn3cc(-c4ccc(OCCN5CCCCC5)cc4)cnc23)cs1`: the IC50 was 2.8 µM.

For the molecule `Cn1cc(-c2cnc3c(-c4csc(C(=O)NCC(F)(F)F)c4)cnn3c2)cn1`, the IC50 was found to be 24 µM.

The target of a further series is Insulin-like growth factor 1 receptor (Homo sapiens, UniProt P08069). Put plainly: Inhibition of recombinant human C-terminal His-tagged cytoplasmic IGF1R (960 to 1397 residues) expressed in baculovirus expression system by Z'-LYTE assay.
Settings: not given
Consider `O=C(NCC(F)(F)F)c1cc(-c2cnn3cc(-c4ccc(OCCN5CCCCC5)cc4)cnc23)cs1`, for which the IC50 was above 100 µM.

With `Cn1cc(-c2cnc3c(-c4csc(C(=O)NCC(F)(F)F)c4)cnn3c2)cn1`, the half-maximal inhibitory concentration (IC50) was above 100 µM.

In the next series the target is T1, Mitogen-activated protein kinase 13 (Homo sapiens, UniProt O15264).
T1 sequence (O15264 whole entry): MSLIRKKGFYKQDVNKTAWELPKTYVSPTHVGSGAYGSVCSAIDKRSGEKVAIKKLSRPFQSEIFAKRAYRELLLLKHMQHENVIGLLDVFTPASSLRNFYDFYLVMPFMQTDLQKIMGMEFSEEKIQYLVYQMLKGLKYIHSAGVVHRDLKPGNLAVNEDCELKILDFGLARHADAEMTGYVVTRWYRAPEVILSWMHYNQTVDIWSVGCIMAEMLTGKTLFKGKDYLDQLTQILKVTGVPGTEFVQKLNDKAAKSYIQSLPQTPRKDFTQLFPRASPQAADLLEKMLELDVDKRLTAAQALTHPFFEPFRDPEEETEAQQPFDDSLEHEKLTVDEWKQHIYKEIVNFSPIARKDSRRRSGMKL
The series can be described thus: Inhibition of full-length recombinant human His-tagged MAPK13 expressed in baculovirus expression system by Z'-LYTE assay.
Settings: not given
Consider `O=C(NCC(F)(F)F)c1cc(-c2cnn3cc(-c4ccc(OCCN5CCCCC5)cc4)cnc23)cs1`, for which the IC50 came out at 13 µM.

As to `Cn1cc(-c2cnc3c(-c4csc(C(=O)NCC(F)(F)F)c4)cnn3c2)cn1`, the IC50 was 2.2 µM.

The target of another series is T2, Ephrin type-B receptor 2 (Homo sapiens, UniProt P29323).
T2 sequence (P29323 whole entry): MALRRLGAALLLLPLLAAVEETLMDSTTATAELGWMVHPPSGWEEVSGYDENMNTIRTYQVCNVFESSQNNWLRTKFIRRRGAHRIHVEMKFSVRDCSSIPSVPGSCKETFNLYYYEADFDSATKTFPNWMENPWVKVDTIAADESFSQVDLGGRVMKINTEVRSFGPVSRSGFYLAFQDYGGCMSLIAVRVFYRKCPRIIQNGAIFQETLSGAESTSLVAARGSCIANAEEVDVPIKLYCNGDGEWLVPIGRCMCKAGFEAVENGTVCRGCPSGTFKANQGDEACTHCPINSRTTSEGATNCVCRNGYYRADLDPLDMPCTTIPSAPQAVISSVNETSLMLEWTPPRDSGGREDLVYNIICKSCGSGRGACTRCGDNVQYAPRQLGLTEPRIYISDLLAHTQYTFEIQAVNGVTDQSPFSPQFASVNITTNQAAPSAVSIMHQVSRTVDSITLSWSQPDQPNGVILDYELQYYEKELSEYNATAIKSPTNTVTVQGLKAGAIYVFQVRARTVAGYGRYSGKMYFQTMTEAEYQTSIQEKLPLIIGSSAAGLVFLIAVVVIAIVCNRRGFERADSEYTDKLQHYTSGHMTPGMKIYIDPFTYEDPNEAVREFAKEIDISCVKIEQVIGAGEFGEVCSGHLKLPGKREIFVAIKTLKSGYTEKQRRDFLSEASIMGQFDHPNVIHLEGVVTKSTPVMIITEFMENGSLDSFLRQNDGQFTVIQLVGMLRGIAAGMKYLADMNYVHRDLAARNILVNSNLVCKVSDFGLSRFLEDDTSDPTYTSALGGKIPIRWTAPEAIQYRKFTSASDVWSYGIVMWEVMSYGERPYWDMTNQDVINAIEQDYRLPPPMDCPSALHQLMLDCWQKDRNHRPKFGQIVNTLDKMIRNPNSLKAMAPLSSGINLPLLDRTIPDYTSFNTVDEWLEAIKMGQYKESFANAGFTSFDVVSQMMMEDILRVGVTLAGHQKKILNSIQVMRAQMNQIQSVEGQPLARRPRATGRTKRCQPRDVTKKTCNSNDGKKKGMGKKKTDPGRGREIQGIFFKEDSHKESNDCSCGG
Put plainly: Inhibition of recombinant human GST-tagged cytoplasmic EPHB2 expressed in baculovirus expression system by Z'-LYTE assay.
Settings: not given
For `O=C(NCC(F)(F)F)c1cc(-c2cnn3cc(-c4ccc(OCCN5CCCCC5)cc4)cnc23)cs1`, the IC50 was below 0.01 µM.

In the case of `Cn1cc(-c2cnc3c(-c4csc(C(=O)NCC(F)(F)F)c4)cnn3c2)cn1`, the IC50 stood at 0.036 µM.

The target of another series is Serine/threonine-protein kinase PLK1 (Homo sapiens, UniProt P53350). The series can be described thus: Inhibition of full-length recombinant human His-tagged PLK1 expressed in baculovirus expression system by Z'-LYTE assay.
Serine/threonine-protein kinase PLK1, sequence (P53350 whole entry): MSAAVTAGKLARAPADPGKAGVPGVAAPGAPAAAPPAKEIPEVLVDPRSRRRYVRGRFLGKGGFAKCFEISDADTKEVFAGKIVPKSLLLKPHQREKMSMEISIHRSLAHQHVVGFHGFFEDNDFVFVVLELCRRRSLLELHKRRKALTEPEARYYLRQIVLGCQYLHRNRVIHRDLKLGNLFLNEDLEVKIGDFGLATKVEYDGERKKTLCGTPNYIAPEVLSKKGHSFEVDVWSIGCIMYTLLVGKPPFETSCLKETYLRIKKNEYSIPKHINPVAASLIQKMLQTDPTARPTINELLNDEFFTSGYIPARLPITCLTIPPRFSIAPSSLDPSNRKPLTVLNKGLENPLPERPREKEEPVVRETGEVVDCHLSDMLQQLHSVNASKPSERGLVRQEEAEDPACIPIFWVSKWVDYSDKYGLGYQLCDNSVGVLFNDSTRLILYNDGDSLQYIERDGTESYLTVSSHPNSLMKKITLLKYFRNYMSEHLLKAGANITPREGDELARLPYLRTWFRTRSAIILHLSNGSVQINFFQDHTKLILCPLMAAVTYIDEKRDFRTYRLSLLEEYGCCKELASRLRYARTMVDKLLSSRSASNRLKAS
Settings: not given
Consider `O=C(NCC(F)(F)F)c1cc(-c2cnn3cc(-c4ccc(OCCN5CCCCC5)cc4)cnc23)cs1`, for which the IC50 turned out to be 55 µM.

As for `Cn1cc(-c2cnc3c(-c4csc(C(=O)NCC(F)(F)F)c4)cnn3c2)cn1`, the IC50 is above 100 µM.

A further series addresses Angiopoietin-1 receptor (Homo sapiens, UniProt Q02763). Put plainly: Inhibition of recombinant human GST-tagged cytoplasmic TEK expressed in baculovirus expression system by Z'-LYTE assay.
Settings: not given
Take `O=C(NCC(F)(F)F)c1cc(-c2cnn3cc(-c4ccc(OCCN5CCCCC5)cc4)cnc23)cs1`: the IC50 was determined as 4.7 µM.

For `Cn1cc(-c2cnc3c(-c4csc(C(=O)NCC(F)(F)F)c4)cnn3c2)cn1`, the IC50 was 4.7 µM.

The target of the next series is Dual specificity mitogen-activated protein kinase kinase 1 (Homo sapiens, UniProt Q02750). Put plainly: Inhibition of full-length recombinant human His-tagged MAP2K1 expressed in baculovirus expression system by LanthaScreen assay.
Settings: not given
Consider `O=C(NCC(F)(F)F)c1cc(-c2cnn3cc(-c4ccc(OCCN5CCCCC5)cc4)cnc23)cs1`, for which the IC50 turned out to be 7.2 µM.

Consider `Cn1cc(-c2cnc3c(-c4csc(C(=O)NCC(F)(F)F)c4)cnn3c2)cn1`, for which the IC50 amounted to 12 µM.

The next series concerns the target Rho-associated protein kinase 1 (Homo sapiens, UniProt Q13464). The series can be described thus: Inhibition of recombinant human GST-tagged ROCK1 catalytic domain expressed in baculovirus expression system by Z'-LYTE assay.
Settings: not given
For `O=C(NCC(F)(F)F)c1cc(-c2cnn3cc(-c4ccc(OCCN5CCCCC5)cc4)cnc23)cs1`, the IC50 stood at 0.36 µM.

`Cn1cc(-c2cnc3c(-c4csc(C(=O)NCC(F)(F)F)c4)cnn3c2)cn1`: the IC50 was determined as 0.78 µM.

Another series addresses Tyrosine-protein kinase Lck (Homo sapiens, UniProt P06239). Put plainly: Inhibition of full-length recombinant human His-tagged LCK expressed in baculovirus expression system by Z'-LYTE assay.
Settings: not given
Consider `O=C(NCC(F)(F)F)c1cc(-c2cnn3cc(-c4ccc(OCCN5CCCCC5)cc4)cnc23)cs1`, for which the IC50 amounted to 0.019 µM.

Take `Cn1cc(-c2cnc3c(-c4csc(C(=O)NCC(F)(F)F)c4)cnn3c2)cn1`: the IC50 came to 0.037 µM.

Another series has as its target Serine/threonine-protein kinase MRCK alpha (Homo sapiens, UniProt Q5VT25). The series can be described thus: Inhibition of recombinant human His-tagged CDC42BPA catalytic domain expressed in baculovirus expression system by Z'-LYTE assay.
Settings: not given
Consider `O=C(NCC(F)(F)F)c1cc(-c2cnn3cc(-c4ccc(OCCN5CCCCC5)cc4)cnc23)cs1`, for which the IC50 was 1.2 µM.

Take `Cn1cc(-c2cnc3c(-c4csc(C(=O)NCC(F)(F)F)c4)cnn3c2)cn1`: the IC50 was 9.2 µM.

Test system in a further series: not listed separately
Put plainly: Clearance in Sprague-Dawley rat at 1 mL/kg, iv administered through catheter measured after 24 hrs by LC-MS/MS analysis. Type of series: ADME, organism-based. The following applies: in vivo.
As for `O=C(NCC(F)(F)F)c1cc(-c2cnn3cc(-c4ccc(OCCN5CCCCC5)cc4)cnc23)cs1`, the clearance turned out to be 32 mL/min/kg.

Regarding `Cn1cc(-c2cnc3c(-c4csc(C(=O)NCC(F)(F)F)c4)cnn3c2)cn1`, the clearance is 7.4 mL/min/kg.

Another series has as its target Serine/threonine-protein kinase PAK 1 (Homo sapiens, UniProt Q13153). The series can be described thus: Inhibition of full-length recombinant human GST-tagged PAK1 expressed in baculovirus expression system by Z'-LYTE assay.
Settings: not given
As to `O=C(NCC(F)(F)F)c1cc(-c2cnn3cc(-c4ccc(OCCN5CCCCC5)cc4)cnc23)cs1`, the IC50 amounted to 8.3 µM.

In the case of `Cn1cc(-c2cnc3c(-c4csc(C(=O)NCC(F)(F)F)c4)cnn3c2)cn1`, the IC50 was determined as 6.2 µM.

The target in another series is MAP kinase-activated protein kinase 2 (Homo sapiens, UniProt P49137). The series can be described thus: Inhibition of full-length recombinant human His-tagged MAPKAPK2 expressed in Escherichia coli by Z'-LYTE assay.
Settings: not given
As to `O=C(NCC(F)(F)F)c1cc(-c2cnn3cc(-c4ccc(OCCN5CCCCC5)cc4)cnc23)cs1`, the IC50 was determined as 55 µM.

Take `Cn1cc(-c2cnc3c(-c4csc(C(=O)NCC(F)(F)F)c4)cnn3c2)cn1`: the IC50 was above 100 µM.

The target in another series is G protein-coupled receptor kinase 4 (Homo sapiens, UniProt P32298). The series can be described thus: Inhibition of full-length recombinant human GST-tagged GRK4 expressed in baculovirus expression system by Z'-LYTE assay.
G protein-coupled receptor kinase 4, sequence (P32298 whole entry): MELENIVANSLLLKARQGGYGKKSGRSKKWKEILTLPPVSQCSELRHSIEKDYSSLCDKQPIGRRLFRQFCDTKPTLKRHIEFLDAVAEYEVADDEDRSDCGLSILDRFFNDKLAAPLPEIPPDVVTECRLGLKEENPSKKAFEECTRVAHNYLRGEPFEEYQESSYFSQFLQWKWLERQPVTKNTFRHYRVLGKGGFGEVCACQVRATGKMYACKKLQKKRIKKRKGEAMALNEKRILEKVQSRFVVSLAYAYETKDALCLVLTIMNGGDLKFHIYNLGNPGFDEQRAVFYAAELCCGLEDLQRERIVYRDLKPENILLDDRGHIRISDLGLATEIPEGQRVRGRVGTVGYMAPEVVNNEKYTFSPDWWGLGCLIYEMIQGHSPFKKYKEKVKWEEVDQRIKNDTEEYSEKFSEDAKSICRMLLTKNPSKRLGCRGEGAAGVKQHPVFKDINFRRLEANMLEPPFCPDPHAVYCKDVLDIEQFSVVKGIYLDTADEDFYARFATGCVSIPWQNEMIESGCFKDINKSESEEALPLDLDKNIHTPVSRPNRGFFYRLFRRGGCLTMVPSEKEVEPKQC
Settings: not given
`O=C(NCC(F)(F)F)c1cc(-c2cnn3cc(-c4ccc(OCCN5CCCCC5)cc4)cnc23)cs1`: the IC50 came to 5.3 µM.

With `Cn1cc(-c2cnc3c(-c4csc(C(=O)NCC(F)(F)F)c4)cnn3c2)cn1`, the IC50 amounted to 19 µM.

The target in a further series is T3, Interleukin-1 receptor-associated kinase 4 (Homo sapiens, UniProt Q9NWZ3).
T3 sequence (Q9NWZ3 whole entry): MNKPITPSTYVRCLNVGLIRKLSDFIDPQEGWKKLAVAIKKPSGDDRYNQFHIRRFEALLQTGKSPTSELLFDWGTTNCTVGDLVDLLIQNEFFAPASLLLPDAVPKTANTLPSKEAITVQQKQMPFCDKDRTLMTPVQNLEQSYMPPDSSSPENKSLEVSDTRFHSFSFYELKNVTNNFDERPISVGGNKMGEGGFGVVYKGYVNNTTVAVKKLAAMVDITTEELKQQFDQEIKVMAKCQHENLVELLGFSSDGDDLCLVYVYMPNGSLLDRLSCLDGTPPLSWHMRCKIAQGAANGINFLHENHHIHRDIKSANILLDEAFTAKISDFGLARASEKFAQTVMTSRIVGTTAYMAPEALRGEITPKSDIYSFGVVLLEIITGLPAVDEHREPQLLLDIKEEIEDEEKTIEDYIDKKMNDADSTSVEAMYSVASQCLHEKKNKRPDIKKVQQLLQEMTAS
Put plainly: Inhibition of full-length recombinant human His-tagged IRAK4 expressed in baculovirus expression system by Z'-LYTE assay.
Settings: not given
As for `O=C(NCC(F)(F)F)c1cc(-c2cnn3cc(-c4ccc(OCCN5CCCCC5)cc4)cnc23)cs1`, the IC50 was 0.21 µM.

For the molecule `Cn1cc(-c2cnc3c(-c4csc(C(=O)NCC(F)(F)F)c4)cnn3c2)cn1`, the IC50 was determined as 0.064 µM.
